Assay results from PMC11995216, “End-to-End Backbone Cyclization Enhances Passive Permeability of bRo5 Oligomeric Depsipeptides with Nonlinear Size Dependence” (ACS Medicinal Chemistry Letters, 2025).
Where “and” joins values, the source holds several entries; their conditions need not be identical. Equal entries are not always repeated. Where two headings read alike, the source gives them in different places. Starred links: 1 amine or outer side, 2 acyl side, 3 side chain; linkers in the order of their positions; H or OH if unused. Non-standard residues stand in square brackets, D forms with d. Residues, ends and D or L forms follow the SMILES beside them. *: point of attachment. X1 = CCCCC[C@H](O[*:1])C(=O)[*:2]; Ahp(2) = CCCCC[C@H](N)C(=O)O; dNMeA = CN[C@H](C)C(=O)O; Boc = CC(C)(C)OC(=O)*; OBn = c1ccc(CO*)cc1

Legend:
[1] = calculated using Supplement Equation 1, UV detection
[2] = tested on: PAMPA; conditions: UV detection
[3] = UV detection
[4] = PAMPA
[5] = tested on: PAMPA; conditions: UV detection, initial concentration 500 uM
[6] = PAMPA; remark: listed apart in the source
[7] = initial concentration 500 uM, UV detection

- %T ([1]; Well 1 / %T, Well 1): 0.55% and 0.49%
- %T ([1]; Well 2 / %T, Well 2): 0.56% and 0.52%
- %T ([1]; Well 3 / %T, Well 3): 0.52% and 0.55%
- %T ([1]; Well 4 / %T, Well 4): 0.5% and 0.53%
- %T ([1]; Well 5 / %T, Well 5): 0.54% and 0.53%
- Papp ([2]; Papp (x 10^-6 cm/s) / [row 1]): 3.76 ×10⁻⁶ cm/s
- Papp ([2]; Papp (x 10^-6 cm/s) / [row 2]): 3.12 ×10⁻⁶ cm/s
- Papp ([2]; Papp (x 10^-6 cm/s) / [row 3]): 3.36 ×10⁻⁶ cm/s
- Papp ([2]; Papp (x 10^-6 cm/s) / [row 4]): 3.52 ×10⁻⁶ cm/s
- Papp ([2]; Papp (x 10^-6 cm/s) / [row 5]): 3.88 ×10⁻⁶ cm/s
- Papp ([2]; Papp (x 10^-6 cm/s) / [row 6]): 3.19 ×10⁻⁶ cm/s
- Papp ([2]; Papp (x 10^-6 cm/s) / [row 7]): 3.05 ×10⁻⁶ cm/s
- Papp ([2]; Papp (x 10^-6 cm/s) / [row 8]): 2.93 ×10⁻⁶ cm/s
- Papp ([2]; Papp (x 10^-6 cm/s) / [row 9]): 3.14 ×10⁻⁶ cm/s
- Papp ([2]; Papp (x 10^-6 cm/s) / [row 10]): 3.2 ×10⁻⁶ cm/s
- % recovery ([3]; Well 1 / %R, Well 1): 96% and 88%
- % recovery ([3]; Well 2 / %R, Well 2): 91% and 90%
- % recovery ([3]; Well 4 / %R, Well 4): 92% and 88%
- % recovery ([3]; Well 5 / %R, Well 5): 87% and 85%
- Papp [4]: 3.32 ± 0.31 ×10⁻⁶ cm/s
- LogPapp [6]: -5.48 ± 0.04
- Δ % diffusion [6]: ↑10%
SMILES: CCCCC[C@H](NC(=O)[C@@H](C)N(C)C(=O)[C@H](CCCCC)OC(=O)[C@@H](C)N(C)C(=O)[C@H](CCCCC)NC(=O)[C@@H](C)N(C)C(=O)[C@H](CCCCC)OC(=O)[C@@H](C)N(C)C(=O)OC(C)(C)C)C(=O)OCc1ccccc1 [Compound L2.3] (Boc-[dNMeA][X1][dNMeA][Ahp(2)][dNMeA][X1][dNMeA][Ahp(2)]-OBn)
- Acceptor Concentration ([5]; Acceptor Concentration (uM) / [row 1]): 89.6 µM
- Acceptor Concentration ([5]; Acceptor Concentration (uM) / [row 2]): 71.9 µM
- Acceptor Concentration ([5]; Acceptor Concentration (uM) / [row 3]): 75.1 µM
- Acceptor Concentration ([5]; Acceptor Concentration (uM) / [row 4]): 81.3 µM
- Acceptor Concentration ([5]; Acceptor Concentration (uM) / [row 5]): 83.9 µM
- Acceptor Concentration ([5]; Acceptor Concentration (uM) / [row 6]): 71.2 µM
- Acceptor Concentration ([5]; Acceptor Concentration (uM) / [row 7]): 69.7 µM
- Acceptor Concentration ([5]; Acceptor Concentration (uM) / [row 8]): 66.2 µM
- Acceptor Concentration ([5]; Acceptor Concentration (uM) / [row 9]): 69.9 µM
- Acceptor Concentration ([5]; Acceptor Concentration (uM) / [row 10]): 69 µM
- donor concentration after incubation ([7]; Well 1 / [donor], Well 1): 388 µM and 369 µM
- donor concentration after incubation ([7]; Well 2 / [donor], Well 2): 382 µM and 380 µM
- donor concentration after incubation ([7]; Well 3 / [donor], Well 3): 369 µM and 377 µM
- donor concentration after incubation ([7]; Well 4 / [donor], Well 4): 380 µM and 370 µM
- donor concentration after incubation ([7]; Well 5 / [donor], Well 5): 353 µM and 358 µM
